The source of these data is BindingDB's records for patent WO2025049746 (Eikon Therapeutics, 2025).

For assay [1], the target named is T1, Bifunctional 3'-5' exonuclease/ATP-dependent helicase WRN [480-1251] (UniProt Q14191).
T1 construct: 480-1251
Nature of the assay: Biochemical Activity Assays. How it is done: The pure fractions were pooled and desalted/buffer exchanged into storage buffer using a HiTrap desalting column. […] First, WRN alone was pre-incubated with DMSO or compound of interest for 15 minutes. To initiate the reaction, ATP, dsDNA substrate, and ssDNA competitor (ssDNA_comp: […]) were added and incubated at room temperature for 20 minutes at which point DNA unwinding activity was monitored by measuring Cy3 fluorescence. After obtaining the reading, the ATPase activity was measured using the ADP-Glo Kinase Assay following the manufacturers recommended protocol. […] Compounds were assayed in a 10-point dose response in duplicate at a 1% DMSO final assay concentration.

In assay [2] the target is Bifunctional 3'-5' exonuclease/ATP-dependent helicase WRN (Homo sapiens, UniProt Q14191). Nature of the assay: ADP-Glo Kinase Assay. How it is done:
ATPase activity was measured using the ADP-Glo Kinase Assay following the manufacturers recommended protocol.
(In general: ADP-Glo turns the ADP formed in a reaction into a luminescent signal.)

Bifunctional 3'-5' exonuclease/ATP-dependent helicase WRN, sequence (Q14191 whole entry): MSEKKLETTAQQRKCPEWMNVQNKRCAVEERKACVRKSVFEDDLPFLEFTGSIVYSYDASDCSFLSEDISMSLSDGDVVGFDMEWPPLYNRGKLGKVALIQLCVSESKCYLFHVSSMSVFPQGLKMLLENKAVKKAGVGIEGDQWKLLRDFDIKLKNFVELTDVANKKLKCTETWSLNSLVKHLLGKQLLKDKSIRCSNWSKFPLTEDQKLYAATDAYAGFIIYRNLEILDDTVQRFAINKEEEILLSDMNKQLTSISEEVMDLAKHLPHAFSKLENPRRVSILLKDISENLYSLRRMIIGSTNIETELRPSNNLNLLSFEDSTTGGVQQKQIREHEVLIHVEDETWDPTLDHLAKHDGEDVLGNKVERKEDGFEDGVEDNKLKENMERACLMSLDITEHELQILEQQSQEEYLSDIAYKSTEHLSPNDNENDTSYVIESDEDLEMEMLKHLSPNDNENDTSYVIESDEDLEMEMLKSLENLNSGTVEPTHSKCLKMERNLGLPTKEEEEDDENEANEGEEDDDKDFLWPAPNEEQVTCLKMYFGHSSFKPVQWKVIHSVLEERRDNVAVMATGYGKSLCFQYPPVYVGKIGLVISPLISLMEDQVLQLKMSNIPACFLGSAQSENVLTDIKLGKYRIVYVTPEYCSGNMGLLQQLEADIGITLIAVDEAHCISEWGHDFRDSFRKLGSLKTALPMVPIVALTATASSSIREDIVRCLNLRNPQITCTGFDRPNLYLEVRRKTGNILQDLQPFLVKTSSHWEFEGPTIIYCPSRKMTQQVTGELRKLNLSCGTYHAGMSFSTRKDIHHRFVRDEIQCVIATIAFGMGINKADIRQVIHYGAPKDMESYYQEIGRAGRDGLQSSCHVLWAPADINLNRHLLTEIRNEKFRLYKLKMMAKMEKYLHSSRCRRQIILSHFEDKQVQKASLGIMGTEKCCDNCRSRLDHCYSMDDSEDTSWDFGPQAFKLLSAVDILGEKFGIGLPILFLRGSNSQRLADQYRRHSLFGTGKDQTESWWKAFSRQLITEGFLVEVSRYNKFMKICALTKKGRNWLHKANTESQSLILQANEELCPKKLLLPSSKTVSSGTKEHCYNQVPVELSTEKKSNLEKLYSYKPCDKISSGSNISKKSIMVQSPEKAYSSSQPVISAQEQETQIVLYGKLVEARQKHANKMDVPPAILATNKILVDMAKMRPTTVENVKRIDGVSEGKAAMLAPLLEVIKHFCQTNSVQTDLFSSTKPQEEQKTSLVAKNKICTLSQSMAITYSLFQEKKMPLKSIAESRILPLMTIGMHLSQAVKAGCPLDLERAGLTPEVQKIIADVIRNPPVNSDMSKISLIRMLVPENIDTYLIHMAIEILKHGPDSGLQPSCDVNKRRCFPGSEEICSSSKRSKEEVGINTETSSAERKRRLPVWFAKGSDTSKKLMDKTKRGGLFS
T1 sequence (Q14191 480-1251): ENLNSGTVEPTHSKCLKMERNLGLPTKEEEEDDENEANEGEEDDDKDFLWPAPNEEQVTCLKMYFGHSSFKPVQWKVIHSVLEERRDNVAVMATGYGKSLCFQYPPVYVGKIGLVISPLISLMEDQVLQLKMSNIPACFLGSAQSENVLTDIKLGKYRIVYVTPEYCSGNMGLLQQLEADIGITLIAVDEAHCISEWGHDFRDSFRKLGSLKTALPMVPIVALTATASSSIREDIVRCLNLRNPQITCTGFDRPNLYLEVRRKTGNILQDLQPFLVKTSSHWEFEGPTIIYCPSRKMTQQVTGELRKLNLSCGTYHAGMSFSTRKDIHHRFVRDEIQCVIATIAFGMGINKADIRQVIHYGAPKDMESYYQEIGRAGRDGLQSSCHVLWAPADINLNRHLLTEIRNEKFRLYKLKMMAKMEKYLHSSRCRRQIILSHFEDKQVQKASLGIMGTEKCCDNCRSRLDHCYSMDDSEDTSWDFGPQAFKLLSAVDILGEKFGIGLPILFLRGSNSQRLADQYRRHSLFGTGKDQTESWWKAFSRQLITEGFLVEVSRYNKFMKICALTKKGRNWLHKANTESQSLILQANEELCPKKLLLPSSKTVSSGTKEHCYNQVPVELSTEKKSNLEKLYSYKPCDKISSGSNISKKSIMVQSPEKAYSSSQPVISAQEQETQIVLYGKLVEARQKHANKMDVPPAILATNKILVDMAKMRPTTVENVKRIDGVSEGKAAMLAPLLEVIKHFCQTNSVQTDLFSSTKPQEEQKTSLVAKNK

As usually defined, the IC50 is the concentration that inhibits the measured activity by half. A lower IC50 goes with greater potency. As to `CCc1c(N2CCN(C(=O)c3nc4n(c(=O)c3O)CCOC4)CC2)c(=O)n2nc(-c3ccc4c(c3)CCOC4)nc2n1CC(=O)Nc1ccc(C(F)(F)F)cc1Cl` [WO2025049746, Example 90], the IC50 in assay [1] turned out to be 29.2 nM; in assay [2], 34.6 nM.

Regarding `CCc1c(N2CCN(C(=O)c3ccccc3NS(=O)(=O)C3CC3)CC2)c(=O)n2nc(-c3ccc4c(c3)CCOC4)nc2n1CC(=O)Nc1ccc(C(F)(F)F)cc1Cl` [WO2025049746, Example 91], the values for the IC50 in assay [1] and in assay [2] were 84.6 nM and 106 nM, respectively.

For `CCc1c(N2CCN(C(=O)c3nccc4nc[nH]c34)CC2)c(=O)n2nc(-c3ccc4c(c3)CCOC4)nc2n1CC(=O)Nc1ccc(C(F)(F)F)cc1Cl` [WO2025049746, Example 92], the IC50 came out at 23 nM in assay [1] and 27.9 nM in assay [2].

Consider `CCc1c(N2CCN(C(=O)c3nc4n(c(=O)c3O)CCOC4)CC2)c(=O)n2nc(N3C[C@H]4COC[C@H]4C3)nc2n1CC(=O)Nc1ccc(C(F)(F)F)cc1Cl` [WO2025049746, Example 93], for which the figures for the 50% inhibitory concentration (IC50) in assay [1] and in assay [2] were 320 nM and 381 nM, respectively.

Turning to `CCc1c(N2CCN(C(=O)c3ccccc3NS(=O)(=O)C3CC3)CC2)c(=O)n2nc(N3C[C@H]4COC[C@H]4C3)nc2n1CC(=O)Nc1ccc(C(F)(F)F)cc1Cl` [WO2025049746, Example 94], the IC50 was found to be 23.4 nM in assay [1] and 26.6 nM in assay [2].

Take `CCc1c(N2CCN(C(=O)c3nccc4nc[nH]c34)CC2)c(=O)n2nc(N3C[C@H]4COC[C@H]4C3)nc2n1CC(=O)Nc1ccc(C(F)(F)F)cc1Cl` [WO2025049746, Example 95]: the IC50 in assay [1] came to 16.3 nM; in assay [2] it was 20.1 nM.

Regarding `CCc1c(N2CCN(C(=O)c3ncnc(C)c3O)CC2)c(=O)n2nc(-c3ccc4c(c3)OCO4)nc2n1CC(=O)Nc1ccc(C(F)(F)F)c2c1CC2` [WO2025049746, Example 96], the IC50 in assay [1] was 25.9 nM; in assay [2], 28.3 nM.

For `CCc1c(N2CCN(C(=O)c3ncnc(C)c3O)CC2)c(=O)n2nc(-c3cccc4c3OCCO4)nc2n1CC(=O)Nc1ccc(C(F)(F)F)c2c1CC2` [WO2025049746, Example 97], the IC50 in assay [1] came out at 15.9 nM; in assay [2], 19.3 nM.

Regarding `CCc1c(N2CCN(C(=O)c3ncnc(C)c3O)CC2)c(=O)n2nc(-c3ccc4c(c3)CCOC4)nc2n1CC(=O)Nc1ccc(C(F)(F)F)c2c1CC2` [WO2025049746, Example 98], the values for the IC50 in assay [1] and in assay [2] were 23.9 nM and 30.8 nM, respectively.

As for `CCc1c(N2CCN(C(=O)c3ncnc(C)c3O)CC2)c(=O)n2nc(N(C)C)nc2n1CC(=O)Nc1ccc(C(F)(F)F)c2c1CC2` [WO2025049746, Example 104], the values for the IC50 in assay [1] and in assay [2] were 22.8 nM and 26.9 nM, respectively.

`CCc1c(N2CCN(C(=O)c3ccccc3NS(=O)(=O)C3CC3)CC2)c(=O)n2nc(N(C)C)nc2n1CC(=O)Nc1ccc(C(F)(F)F)c2c1CC2` [WO2025049746, Example 105]: the IC50 was 264 nM in assay [1] and 281 nM in assay [2].

Turning to `CCc1c(N2CCN(C(=O)c3ccccc3NS(C)(=O)=O)CC2)c(=O)n2nc(N(C)C)nc2n1CC(=O)Nc1ccc(C(F)(F)F)c2c1CC2` [WO2025049746, Example 106], the results for the half-inhibitory concentration (IC50) in assay [1] and in assay [2] were 276 nM and 414 nM, respectively.

Turning to `CCc1c(N2CCN(C(=O)c3cn(C)nc3O)CC2)c(=O)n2nc(N(C)C)nc2n1CC(=O)Nc1ccc(C(F)(F)F)c2c1CC2` [WO2025049746, Example 107], the IC50 in assay [1] was 129 nM; in assay [2], 160 nM.

Turning to `CCc1c(N2CCN(C(=O)c3nccc4nc[nH]c34)CC2)c(=O)n2nc(N(C)C)nc2n1CC(=O)Nc1ccc(C(F)(F)F)c2c1CC2` [WO2025049746, Example 108], the IC50 in assay [1] stood at 15.5 nM; in assay [2], 21.8 nM.

For `CCc1c(N2CCN(C(=O)c3nc4n(c(=O)c3O)CCOC4)CC2)c(=O)n2nc(N(C)C)nc2n1CC(=O)Nc1ccc(C(F)(F)F)c2c1CC2` [WO2025049746, Example 109], the IC50 in assay [1] was 14.7 nM; in assay [2], 13.4 nM.

As for `CCc1c(N2CCN(C(=O)c3ccccc3NS(=O)(=O)C3CC3)CC2)c(=O)n2nc(-c3ccc4c(c3)CCOC4)nc2n1CC(=O)Nc1ccc(C(F)(F)F)c2c1CC2` [WO2025049746, Example 110], the IC50 in assay [1] came out at 372 nM; in assay [2], 467 nM.

Regarding `CCc1c(N2CCN(C(=O)c3ccccc3NS(=O)(=O)C3CC3)CC2)c(=O)n2nc(-c3ccc4c(c3)OCO4)nc2n1CC(=O)Nc1ccc(C(F)(F)F)c2c1CC2` [WO2025049746, Example 111], the half-maximal inhibitory concentration (IC50) in assay [1] amounted to 251 nM; in assay [2], 308 nM.

As for `CCc1c(N2CCN(C(=O)c3ccccc3NS(=O)(=O)C3CC3)CC2)c(=O)n2nc(N3C[C@H]4COC[C@H]4C3)nc2n1CC(=O)Nc1ccc(C(F)(F)F)c2c1CC2` [WO2025049746, Example 112], the IC50 came out at 45.7 nM in assay [1] and 58.3 nM in assay [2].

For the molecule `CCc1c(N2CCN(C(=O)c3ncnc(C)c3O)CC2)c(=O)n2nc(-c3cn4c(n3)COCC4)nc2n1CC(=O)Nc1ccc(C(F)(F)F)cc1Cl` [WO2025049746, Example 153], the concentration for half-maximal inhibition (IC50) in assay [1] worked out at 165 nM; in assay [2], 168 nM.

For the molecule `CCc1c(N2CCN(C(=O)c3ncnc(C)c3O)CC2)c(=O)n2nc(-c3cc4n(n3)CCOC4)nc2n1CC(=O)Nc1ccc(C(F)(F)F)cc1Cl` [WO2025049746, Example 154], the IC50 was found to be 50 nM in assay [1] and 69 nM in assay [2].

Take `CCc1c(N2CCN(C(=O)c3ncnc(C)c3O)CC2)c(=O)n2nc(-c3cccc4oc(C)nc34)nc2n1CC(=O)Nc1ccc(C(F)(F)F)cc1Cl` [WO2025049746, Example 155]: the IC50 in assay [1] was determined as 35 nM; in assay [2], 89 nM.

Consider `CCc1c(N2CCN(C(=O)c3ncnc(C)c3O)CC2)c(=O)n2nc(-c3cccc4sc(C)nc34)nc2n1CC(=O)Nc1ccc(C(F)(F)F)cc1Cl` [WO2025049746, Example 156], for which the IC50 in assay [1] was found to be 37 nM; in assay [2] it was 52 nM.

Take `CCc1c(N2CCN(C(=O)c3ncnc(C)c3O)CC2)c(=O)n2nc(-c3cnc4c(c3)CCO4)nc2n1CC(=O)Nc1ccc(C(F)(F)F)cc1Cl` [WO2025049746, Example 157]: the IC50 worked out at 37 nM in assay [1] and 51 nM in assay [2].

Consider `CCc1c(N2CCN(C(=O)c3ncnc(C)c3O)CC2)c(=O)n2nc(-c3cccc4c3OCC4)nc2n1CC(=O)Nc1ccc(C(F)(F)F)cc1Cl` [WO2025049746, Example 158], for which the values for the IC50 in assay [1] and in assay [2] were 49 nM and 71 nM, respectively.

For `CCc1c(N2CCN(C(=O)c3ncnc(C)c3O)CC2)c(=O)n2nc(-c3cccc4c3CCCO4)nc2n1CC(=O)Nc1ccc(C(F)(F)F)cc1Cl` [WO2025049746, Example 159], the IC50 stood at 82 nM in assay [1] and 231 nM in assay [2].

For `CCc1c(N2CCN(C(=O)c3ncnc(C)c3O)CC2)c(=O)n2nc(-c3cccc4c3OCCC4)nc2n1CC(=O)Nc1ccc(C(F)(F)F)cc1Cl` [WO2025049746, Example 160], the figures for the IC50 in assay [1] and in assay [2] were 34 nM and 51 nM, respectively.

For the molecule `CCc1c(N2CCN(C(=O)c3ncnc(C)c3O)CC2)c(=O)n2nc(-c3cncc4c3COCC4)nc2n1CC(=O)Nc1ccc(C(F)(F)F)cc1Cl` [WO2025049746, Example 161], the IC50 in assay [1] is 84 nM; in assay [2] it was 524 nM.

Turning to `CCc1c(N2CCN(C(=O)c3ncnc(C)c3O)CC2)c(=O)n2nc(-c3cnc4c(c3)CCOC4)nc2n1CC(=O)Nc1ccc(C(F)(F)F)cc1Cl` [WO2025049746, Example 162], the half-maximal inhibitory concentration (IC50) in assay [1] stood at 65 nM; in assay [2] it was 81 nM.
